Data: ChEMBL document CHEMBL4052781, “Discovery and structure-activity relationship of auriculatone: A potent hepatoprotective agent against acetaminophen-induced liver injury” (Bioorg Med Chem Lett, 2017)
The source made the active and inactive calls. The rule behind the calls is not given here.

Legend:
L02 [1] = test: Hepatoprotective activity against APAP-induced cell injury in human HL-7702 cells assessed as increase in survival rate at 0.1 uM pre-incubated for 24 hrs before APAP addition and measured 6 hrs post APAP challenge by MTT assay; assay type: functional, cell-based
L02 [2] = test: Hepatoprotective activity against APAP-induced cell injury in human HL-7702 cells assessed as increase in survival rate at 10 uM pre-incubated for 24 hrs before APAP addition and measured 6 hrs post APAP challenge by MTT assay; assay type: functional, cell-based
L02 [3] = test: Hepatoprotective activity against APAP-induced cell injury in human HL-7702 cells assessed as survival rate at 10 uM pre-incubated for 24 hrs before APAP addition and measured 6 hrs post APAP challenge by MTT assay (reference value: 59.13%); assay type: functional; conditions: read-out: Survival
L02 [4] = test: Hepatoprotective activity against APAP-induced cell injury in human HL-7702 cells assessed as increase in survival rate at 1 uM pre-incubated for 24 hrs before APAP addition and measured 6 hrs post APAP challenge by MTT assay; assay type: functional, cell-based
L02 [5] = test: Effect on APAP-induced depletion of GSH levels in human HL-7702 cells assessed as GSH level at 1 uM by colorimetric method (reference value: 59.68 +/- 1.16 au); assay type: functional
Cytochrome P450 3A4 = Cytochrome P450 3A4 (Homo sapiens, UniProt P08684); test: Inhibition of CYP3A4 in human HL-7702 cells assessed as reduction in metabolic conversion of nifedipine to dehydronifedipine by LC-MS/MS method; assay type: ADME, cell-based
L02 [6] = test: Effect on APAP-induced depletion of GSH levels in human HL-7702 cells assessed as GSH level at 0.1 uM by colorimetric method (reference value: 59.68 +/- 1.16 au); assay type: functional
CYP3A4 = CYP3A4 (Homo sapiens, UniProt P08684); test: Inhibition of CYP3A4 in human HL-7702 cells assessed as assessed as remaining enzyme activity by measuring reduction in metabolic conversion of nifedipine to dehydronifedipine at 10 uM by LC-MS/MS method; assay type: ADME, cell-based; conditions: probe nifedipine, read-out: Activity
L02 [7] = test: Hepatoprotective activity against APAP-induced cell injury in human HL-7702 cells assessed as survival rate at 0.625 uM pre-incubated for 24 hrs before APAP addition and measured 6 hrs post APAP challenge by MTT assay (reference value: 60.49 +/- 0.28%); assay type: functional; conditions: read-out: Survival
L02 [8] = test: Hepatoprotective activity against APAP-induced cell injury in human HL-7702 cells assessed as survival rate at 1.25 uM pre-incubated for 24 hrs before APAP addition and measured 6 hrs post APAP challenge by MTT assay (reference value: 60.49 +/- 0.28%); assay type: functional; conditions: read-out: Survival
L02 [9] = test: Hepatoprotective activity against APAP-induced cell injury in human HL-7702 cells assessed as survival rate at 10 uM pre-incubated for 24 hrs before APAP addition and measured 6 hrs post APAP challenge by MTT assay (reference value: 60.49 +/- 0.28%); assay type: functional; conditions: read-out: Survival
L02 [10] = test: Effect on APAP-induced depletion of GSH levels in human HL-7702 cells assessed as GSH level at 10 uM by colorimetric method (reference value: 59.68 +/- 1.16 au); assay type: functional
L02 [11] = test: Hepatoprotective activity against APAP-induced cell injury in human HL-7702 cells assessed as survival rate at 5 uM pre-incubated for 24 hrs before APAP addition and measured 6 hrs post APAP challenge by MTT assay (reference value: 60.49 +/- 0.28%); assay type: functional; conditions: read-out: Survival
L02 [12] = test: Hepatoprotective activity against APAP-induced cell injury in human HL-7702 cells assessed as survival rate at 2.5 uM pre-incubated for 24 hrs before APAP addition and measured 6 hrs post APAP challenge by MTT assay (reference value: 60.49 +/- 0.28%); assay type: functional; conditions: read-out: Survival

Sequence of CYP3A4 (P08684 whole entry): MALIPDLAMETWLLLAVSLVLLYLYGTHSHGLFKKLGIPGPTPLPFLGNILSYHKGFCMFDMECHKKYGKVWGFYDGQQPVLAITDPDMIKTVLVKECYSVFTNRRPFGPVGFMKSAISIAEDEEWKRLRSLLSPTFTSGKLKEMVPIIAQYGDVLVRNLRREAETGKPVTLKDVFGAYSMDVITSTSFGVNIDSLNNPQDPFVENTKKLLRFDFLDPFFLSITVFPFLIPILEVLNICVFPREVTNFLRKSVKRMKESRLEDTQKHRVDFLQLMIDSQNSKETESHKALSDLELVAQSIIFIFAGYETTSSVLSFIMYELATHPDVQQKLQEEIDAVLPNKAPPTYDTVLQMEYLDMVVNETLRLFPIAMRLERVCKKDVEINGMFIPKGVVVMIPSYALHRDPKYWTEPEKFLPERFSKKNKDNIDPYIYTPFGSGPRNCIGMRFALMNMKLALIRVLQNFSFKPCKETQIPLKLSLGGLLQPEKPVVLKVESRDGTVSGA
Sequence of Cytochrome P450 3A4 (P08684 whole entry): as above

| SMILES | Activity (L02 [1]) | Activity (L02 [2]) | viability at 10 µM (L02 [3]) [%] | also measured |
| --- | --- | --- | --- | --- |
| CC(=O)O[C@H]1CC[C@]2(C)[C@H]3CC=C4[C@@H]5CC(C)(C)CC[C@H]5C(=O)C[C@@]4(C)[C@]3(C)CC[C@H]2C1(C)C | inactive | Active | 67.1 | – |
| CC1(C)CC[C@H]2CC[C@]3(C)C(=CC[C@@H]4[C@@]5(C)CC[C@H](O)C(C)(C)[C@@H]5CC[C@]43C)[C@@H]2C1 | inactive | Active | 71.6 | Activity (L02 [4]): Active |
| CC1(C)CC[C@]2(C(=O)O)CC[C@]3(C)C(=CC[C@@H]4[C@@]5(C)CCC(=O)C(C)(C)[C@@H]5CC[C@]43C)[C@@H]2C1 | – | Active | – | – |
| CC1(C)CC[C@]2(C(=O)O)CC[C@]3(C)C(=CC=C4[C@@]5(C)CC[C@H](O)C(C)(C)[C@@H]5CC[C@]43C)[C@@H]2C1 | – | Active | – | – |
| CC1(C)CC[C@]2(C(=O)O)[C@H](O)C[C@]3(C)C(=CC[C@@H]4[C@@]5(C)CC[C@H](O)C(C)(C)[C@@H]5CC[C@]43C)[C@@H]2C1 | – | Active | – | – |
| CC1(C)CC[C@H]2C(=O)C[C@]3(C)C(=CC[C@@H]4[C@@]5(C)CC[C@H](O)C(C)(C)[C@@H]5CC[C@]43C)[C@@H]2C1 | inactive | – | 78.3 to 80 | Activity (L02 [5]): 55.62 a.u.; Activity (Cytochrome P450 3A4): Dose-dependent effect; Activity (L02 [6]): 55.93 a.u.; activity at 10 µM (CYP3A4): 66%; viability at 0.625 µM (L02 [7]): 66.8%; viability at 1.25 µM (L02 [8]): 68.6%; viability at 10 µM (L02 [9]): 80.1%; Activity (L02 [10]): 54.37 a.u.; viability at 5 µM (L02 [11]): 76%; Activity (L02 [4]): Active; viability at 2.5 µM (L02 [12]): 74.5% |
| CC1(C)CC[C@@H]2C(=O)C[C@]3(C)C(=CC[C@@H]4[C@@]5(C)CC[C@H](O)C(C)(C)[C@@H]5CC[C@]43C)[C@@H]2C1 | – | – | 76 to 80 | – |
| CC1(C)CC[C@H]2[C@H](O)C[C@]3(C)C(=CC[C@@H]4[C@@]5(C)CC[C@H](O)C(C)(C)[C@@H]5CC[C@]43C)[C@@H]2C1 | inactive | Active | 65.5 | – |
| CC1(C)CC[C@H]2C(=O)C[C@]3(C)C(=CC[C@@H]4[C@@]5(C)CCC(=O)C(C)(C)[C@@H]5CC[C@]43C)[C@@H]2C1 | inactive | Active | 71.2 | Activity (L02 [4]): Active |
| CC1(C)CC[C@]2(C(=O)O)CC[C@]3(C)C(=CC(=O)[C@@H]4[C@@]5(C)CC[C@H](O)C(C)(C)[C@@H]5CC[C@]43C)[C@@H]2C1 | – | Active | – | – |
| CC1(C)CC[C@]2(C(=O)O)CC[C@]3(C)C(=C2C1)C=C[C@@H]1[C@@]2(C)CC[C@H](O)C(C)(C)[C@@H]2CC[C@]13C | – | Active | – | – |
| CC1(C)CC[C@]2(C(=O)O)CC[C@]3(C)C(=CC[C@@H]4[C@@]5(C)CC[C@H](O)C(C)(C)[C@@H]5CC[C@]43C)[C@@H]2C1 [OLEANOLIC_ACID] | – | – | 68.5 | – |
| CC1(C)CC[C@H]2C(=O)C[C@]3(C)[C@@]4(O[C@@H]4C[C@@H]4[C@@]5(C)CC[C@H](O)C(C)(C)[C@@H]5CC[C@]43C)[C@@H]2C1 | inactive | Active | 65.7 | – |
| CC1(C)CC[C@]2(CO)CC[C@]3(C)C(=CC[C@@H]4[C@@]5(C)CC[C@H](O)C(C)(C)[C@@H]5CC[C@]43C)[C@@H]2C1 | – | Active | – | – |
| CC1(C)CC[C@@]23CC[C@@]4(C)[C@]5(C)CC[C@H]6C(C)(C)[C@@H](O)CC[C@]6(C)C5=CC(=O)[C@]4(OC2=O)[C@@H]3C1 | – | Active | – | – |
| CC1(C)CC[C@H]2[C@@H](O)C[C@]3(C)C(=CC[C@@H]4[C@@]5(C)CC[C@H](O)C(C)(C)[C@@H]5CC[C@]43C)[C@@H]2C1 | inactive | Active | 62.9 | – |
| CC(=O)N[C@@H](CS)C(=O)O [ACETYLCYSTEINE] | – | Active | – | viability at 10 µM (L02 [9]): 82.3%; Activity (L02 [10]): 102.49 a.u. |
